Experimental data published in patent publication US5637591A, “Antimicrobial and anticollagenase activity of phenazine-5, 10-dioxide and derivatives” (Fuji ImmunoPharmaceuticals Corp., priority 1995, dated 1997).
In brackets after ≈: the same amount, converted by molar mass. Read-outs that look alike come from different tables or passages of the source.

Legend:
Bacteroides levii = test: anaerobic liquid culture growth inhibition, OD 650 nm; type: cell-based; conditions: Porphyromonas levii, read-out: IC50 Bacteroides levii
Bacteroides fragilis = test: as above; type: cell-based; conditions: read-out: IC50 Bacteroides fragilis
[1] = tested on: Porphyromonas gingivalis 2561; test: as above; type: cell-based
[2] = tested on: Peptostreptococcus anaerobius; test: as above; type: cell-based; conditions: read-out: IC50 Peptostreptococcus anaerobius
[3] = tested on: Fusobacterium necrophorum; test: as above; type: cell-based; conditions: read-out: IC50 Fusobacterium necrophorum
[4] = tested on: P. gingivalis strain 2561; test: minimum inhibitory concentration by addition to plating medium; type: cell-based; conditions: for MIC: Porphyromonas gingivalis, 2561, 168 h
Procedure: (§1) Solutions of the agents were tested for activity against Escherichia coli strain DH5α by a zone inhibition method, and against P. gingivalis strain 2561 by addition to plating medium to determine minimum inhibitory concentrations (M/C). For the zone inhibition study, a suspension of E. coli was spread on the surface of an agar plate. A 3 mm diameter paper disk was placed on the seeded agar surface, and 10 μl of solution of each compound formulated at 1 mg/ml was added to the disk. Plates were incubated overnight at 37° C. The radius of the zone of inhibition was measured from the center of the disk to the edge of the E. coli bacterial lawn. For determination of MIC, drug solutions were mixed with plating medium to produce a range of final drug concentrations. Media with drug were plated in the wells of 24-well plates. A drop of bacterial suspension containing 2-5×10^2 CFU P. gingivalis was placed on each well. Plates were incubated 1 week in an anaerobic chamber at 37° C.

[5] = tested on: Escherichia coli strain DH5α; test: zone inhibition method on agar plate; type: cell-based; conditions: 10 μl of 1 mg/ml on 3 mm paper disk, overnight 37° C., radius from center of disk; for zone of inhibition at 1000 µg/mL: Escherichia coli, read-out: E. coli Clear Zone
Procedure: as §1

Fusobacterium nucleatum = test: anaerobic liquid culture growth inhibition, OD 650 nm; type: cell-based; conditions: read-out: IC50 Fusobacterium nucleatum
[6] = tested on: Porphyromonas gingivalis RB-22D-1; test: as above; type: cell-based
Clostridium perfringens = test: microbe, parasite or virus in culture; type: cell-based; conditions: read-out: IC50 Clostridium perfringens
A. act and/or P. gin = conditions: background summary; cited from earlier work
P. gingivalis = test: bone loss after oral colonization with P. gingivalis in mice, systemic administration; type: in vivo, BALB/c mice
Procedure: An animal model for testing the antimicrobial activity of the invention against P. gingivalis was conducted by inducing oral colonization of the microbe in BALB/c mice. Drug (2-methylphenazine-5,10-dioxide or Tetracycline) or control (2.5% cyclodextran) was administered intraperitoneally once each day for 25 days (2-methylphenazine-5,10-dioxide) or 40 days (Tetracycline). On the day following the last dose administration, the rear molars of the mice were swabbed and the swabs incubated in a growth medium to assess the presence of P. gingivalis. Mice were then sacrificed and jaw bones harvested for evaluation of bone loss.

[7] = tested on: anaerobic bacterial species; test: anaerobic liquid culture growth inhibition, whole panel; type: cell-based; conditions: all species of Table 4; read-out: susceptibilities (IC50) of the various anaerobic species
Procedure: The concentrations of the various preferred substituted phenazine-5,10-dioxide compounds necessary to inhibit growth by 50% (IC50 values) were determined for a variety of anaerobic bacterial species. Compounds were individually diluted into liquid growth media, which along with suspensions of bacterial monocultures were added to the wells of 96-well plates. Cultures were incubated anaerobically overnight, and growth was assessed by measuring optical density at 650 nm. IC50 values were determined as the compound concentration producing a turbidity reading equal to 50% of the maximum. Again, results with Tetracycline are shown for comparison.

[8] = tested on: purified collagenase from P. gingivalis; test: anti-collagenase activity, 3H-collagen hydrolysis; type: biochemical; conditions: for % Inhibition of collagenase: 24 h at 25° C.
Procedure: Collagenase activity in the presence of the preferred compound 2-aminophenazine-5,10-dioxide and in the presence of Tetracycline were measured by incubating ^3 H-collagen with purified collagenase from P. gingivalis using increasing drag concentrations. After 24 h at 25° C., unhydrolyzed collagen fibers were removed from the mixture by centrifugation, and the specific activity of ^3 H in the supernatant quantified as a measure of hydrolyzed collagen. Percent inhibition was determined by subtracting the value in the presence of test compound from the control value, then dividing this quantity by the control value [(control-compound)/control×100].

[9] = Porphyromonas gingivalis, 2561, anaerobic overnight, OD 650 nm, read-out: IC50 Porphyromonas gingivalis 2561
[10] = RB22D1, anaerobic overnight, OD 650 nm, read-out: IC50 Porphyromonas gingivalis RB-22D-1
[11] = MIC on a molar basis, read-out: P. gingivalis MIC
[12] = complete inhibition of growth, 1 week anaerobic, 37° C., read-out: P. gingivalis MIC

| Compound | IC50 (Bacteroides levii; anaerobic overnight, OD 650 nm) [µg/mL] | IC50 (Bacteroides fragilis; anaerobic overnight, OD 650 nm) [µg/mL] | IC50 [1, 9] [µg/mL] | IC50 ([2]; anaerobic overnight, OD 650 nm) [µg/mL] | IC50 ([3]; anaerobic overnight, OD 650 nm) [µg/mL] | IC50 (Fusobacterium nucleatum; anaerobic overnight, OD 650 nm) [µg/mL] | IC50 [6, 10] [µg/mL] | IC50 (Clostridium perfringens) [µg/mL] | MIC [4, 11] [µM] | MIC [4, 12] [µg/mL] | zone of inhibition at 1000 µg/mL [5] [mm] | Activity against A. act and/or P. gin (A. act and/or P. gin) | further results |
| --- | --- | --- | --- | --- | --- | --- | --- | --- | --- | --- | --- | --- | --- |
| [O-][n+]1c2ccccc2[n+]([O-])c2cc(O)c(O)cc21 [2,3-dihydroxyphenazine-5,10-dioxide] | > 10 | > 10 | 5 (≈ 20.5 µM) | > 10 | > 10 | > 10 | 2 (≈ 8.19 µM) | > 10 | – | – | – | – | antimicrobial activity against P. gingivalis [4]: inactive; P. gingivalis MIC (μM) ([4]; MIC on a molar basis): inactive; P. gingivalis MIC ([4]; complete inhibition of growth, 1 week anaerobic, 37° C.): inactive; E. coli Clear Zone [5]: inactive |
| COc1ccc2c(c1)[n+]([O-])c1ccc(N)cc1[n+]2[O-] [2-amino-7-methoxyphenazine-5,10-dioxide, 2-amino,7-methoxyphenazine-5,10-dioxide] | – | – | 0.015 (≈ 0.0583 µM) | – | – | – | 0.08 (≈ 0.311 µM) | – | – | – | – | – | – |
| [O-][n+]1c2ccccc2[n+]([O-])c2c3cccnc3c(O)cc21 [2-hydroxy-3,4-iminopropylphenazine-5,10-dioxide] | 2 (≈ 7.16 µM) | 1 (≈ 3.58 µM) | 0.08 (≈ 0.286 µM) | 0.1 (≈ 0.358 µM) | 6.5 (≈ 23.3 µM) | > 10 | 0.18 (≈ 0.645 µM) | 0.1 (≈ 0.358 µM) | 0.112 | 0.031 | 17 | – | – |
| [O-][n+]1c2ccccc2[n+]([O-])c2cc(O)ccc21 [2-hydroxyphenazine-5,10-dioxide] | 0.2 (≈ 0.876 µM) | 5 (≈ 21.9 µM) | 0.62 (≈ 2.72 µM) | 0.45 (≈ 1.97 µM) | 0.45 (≈ 1.97 µM) | > 10 | 0.22 (≈ 0.964 µM) | 1 (≈ 4.38 µM) | 0.07 | 0.016 | 15 | – | concentration range of activity against P. gingivalis ([4]; molar basis): nanomolar concentration range |
| CC1(C)S[C@@H]2[C@H](NC(=O)[C@H](N)c3ccc(O)cc3)C(=O)N2[C@H]1C(=O)O [Amoxicillin] | – | – | – | – | – | – | – | – | – | – | – | ineffective | – |
| Cc1ncc([N+](=O)[O-])n1CCO [Metronidazole] | – | – | – | – | – | – | – | – | – | – | – | ineffective | – |
| CC1(C)S[C@@H]2[C@H](NC(=O)Cc3ccccc3)C(=O)N2[C@H]1C(=O)O [Penicillin G] | – | – | – | – | – | – | – | – | – | – | – | ineffective | – |
| CN(C)[C@@H]1C(O)=C(C(N)=O)C(=O)[C@@]2(O)C(O)=C3C(=O)c4c(O)cccc4[C@@](C)(O)[C@H]3C[C@@H]12 [Tetracycline, reference compound] | – | – | – | – | – | – | – | 0.06 (≈ 0.135 µM) | – | – | 10 | – | IC50 (Bacteroides levii): 0.1 µg/mL (≈ 0.225 µM); IC50 (Bacteroides fragilis): 0.1 µg/mL (≈ 0.225 µM); IC50 ([1]; Porphyromonas gingivalis, 2561, read-out: IC50 Porphyromonas gingivalis 2561): 0.02 µg/mL (≈ 0.045 µM); IC50 [2]: 0.03 µg/mL (≈ 0.0675 µM); Bone Loss (BLU) Average ± SD (P. gingivalis; Bacterial Infection, 5 mg/kg intraperitoneally once each day × 40 d, 0.33 mm = 1 BLU): 7.21 ± 0.73 BLU; effect of treatment on bone loss (P. gingivalis; infected mice, IP daily, 25 d (2-methylphenazine-5,10-dioxide) or 40 d (Tetracycline)): did not effect the bone loss; IC50 [7]: ≤ 0.1 µg/mL; % Inhibition of collagenase ([8]; 1 μg/ml): 7.6%; % Inhibition of collagenase ([8]; 10 μg/ml): 31%; % Inhibition of collagenase ([8]; 100 μg/ml): 68%; anti-collagenase IC50 ([8]; estimated from Table 5): about 56 μg/ml; IC50 [3]: 0.03 µg/mL (≈ 0.0675 µM); MIC ([4]; read-out: P. gingivalis MIC): 0.5 µg/mL; MIC ([4]; read-out: P. gingivalis MIC (μM)): 1.13 µM; IC50 (Fusobacterium nucleatum): 0.16 µg/mL (≈ 0.36 µM); IC50 ([6]; RB22D1, read-out: IC50 Porphyromonas gingivalis RB-22D-1): 0.06 µg/mL (≈ 0.135 µM) |
| [O-][n+]1c2ccccc2[n+]([O-])c2ccccc21 [phenazine-5,10-dioxide] | 2.5 (≈ 11.8 µM) | 3 (≈ 14.1 µM) | – | 0.2 (≈ 0.942 µM) | 0.45 (≈ 2.12 µM) | 3.5 (≈ 16.5 µM) | – | 1 (≈ 4.71 µM) | 0.296 | 0.063 | 19 | – | – |
